Results as given in PMC5572114, “Guanidine N-methylation by BlsL Is Dependent on Acylation of Beta-amine Arginine in the Biosynthesis of Blasticidin S” (Frontiers in Microbiology, 2017).

Target: T1, BlsL (Streptomyces griseochromogenes, UniProt Q841K2)
T1 construct: gene J2Z21_009042; full length, His-tagged, pET28a NdeI/EcoRI, E. coli BL21(DE3); gene from cluster plasmid pJTU1780; primers encode N-terminus MEQSTGA, C-terminus CFYKD
Test: SAM released from boiled purified BlsL; HPLC and MS/MS
Type: binding
Conditions: co-purified endogenous ligand; methyl donor

T1 sequence (Q841K2 1-213): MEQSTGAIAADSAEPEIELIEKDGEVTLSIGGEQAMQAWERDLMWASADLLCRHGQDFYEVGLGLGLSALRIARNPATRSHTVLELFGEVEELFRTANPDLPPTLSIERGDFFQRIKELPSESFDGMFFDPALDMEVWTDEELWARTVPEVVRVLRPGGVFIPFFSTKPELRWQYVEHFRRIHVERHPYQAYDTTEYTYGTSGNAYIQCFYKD

Question: How did the “SAM released from boiled purified BlsL; HPLC and MS/MS” value turn out when `C[S+](CC[C@H](N)C(=O)O)C[C@H]1O[C@@H](n2cnc3c(N)ncnc32)[C@H](O)[C@@H]1O` (stereo partly shown) [SAM] was run?
Answer: Its value is “Association of SAM with BlsL was confirmed by HPLC as well as MS/MS fragmentation”.
